Test results as given in article PMC5976239 (Journal of medicinal chemistry, 2017).
≈ marks a conversion by molar mass, not a printed value. Read-outs that look alike come from different tables or passages of the source.

What was measured:
[1] = system: Candida albicans ATCC 10231 (A); assay: MIC determination by in vitro antifungal assay; type: cell-based; settings: ATCC10231, 48 h, read-out: MIC (MIC-0)
[2] = system: C. albicans ATCC 64124(R) (B); assay: MIC determination by in vitro antifungal assay; type: cell-based; settings: Candida albicans, ATCC64124, 48 h
[3] = system: C. albicans ATCC 90819(R) (D); assay: MIC determination by in vitro antifungal assay; type: cell-based; settings: Candida albicans, ATCC90819, 48 h
[4] = system: C. albicans ATCC MYA-1003(R) (G); assay: MIC determination by in vitro antifungal assay; type: cell-based; settings: Candida albicans, 48 h
[5] = system: Aspergillus nidulans ATCC 38163 (L); assay: MIC determination against filamentous fungi; type: cell-based; settings: ATCC38163, 48 h, read-out: MIC (MIC-0)
[6] = system: Aspergillus terreus ATCC MYA-3633 (M); assay: MIC determination against filamentous fungi; type: cell-based; settings: 48 h, read-out: MIC (MIC-0)
[7] = system: Candida albicans ATCC 10231 (A); assay: MIC determination in the presence and absence of FBS; type: cell-based; settings: for MIC: Candida albicans, ATCC10231, read-out: MIC, Candida albicans ATCC 10231 (A) (no FBS); for antifungal activity in the presence of FBS (in words): strains A, J, and L, +10% FBS versus no FBS
[8] = system: Aspergillus nidulans ATCC 38163 (L); assay: as above; type: cell-based; settings: ATCC38163, read-out: MIC, Aspergillus nidulans ATCC 38163 (L) (no FBS)
[9] = Hemolytic activity assay; type: cell-based; settings: mouse, murine red blood cells (mRBCs)
[10] = system: HEK-293; assay: In vitro cytotoxicity assay; type: cell-based; settings: 24 h; for toxicity to mammalian cells (in words): 18 and 20 at 7.8 µg/mL
[11] = system: A549; assay: In vitro cytotoxicity assay; type: cell-based; settings: 24 h
[12] = system: BEAS-2B; assay: In vitro cytotoxicity assay; type: cell-based; settings: 24 h; for toxicity to mammalian cells (in words): 18 and 20 at 7.8 µg/mL
[13] = system: C. albicans ATCC 64124 (strain B) biofilms; assay: Biofilm assay
[14] = system: C. albicans ATCC MYA-2876(S) (C); assay: MIC determination by in vitro antifungal assay; type: cell-based; settings: Candida albicans, 48 h
[15] = system: C. albicans ATCC MYA-2310(S) (E); assay: MIC determination by in vitro antifungal assay; type: cell-based; settings: Candida albicans, 48 h
[16] = system: C. albicans ATCC MYA-1237(R) (F); assay: MIC determination by in vitro antifungal assay; type: cell-based; settings: Candida albicans, 48 h
[17] = system: Aspergillus flavus ATCC MYA-3631 (K); assay: MIC determination against filamentous fungi; type: cell-based; settings: 48 h, read-out: MIC (MIC-0)
[18] = system: C. albicans, non-albicans Candida, and Aspergillus strains; assay: Antifungal activity over the panel of 13 fungal strains; type: cell-based; settings: read-out: antifungal activity class based on MIC values
[19] = system: C. albicans ATCC 10231 (strain A); assay: Time-kill assay; type: cell-based, Candida albicans; settings: 24 h, compound 20 at 4× MIC, VOR at 1× and 4× MIC
[20] = system: C. parapsilosis ATCC 22019 (strain J); assay: Time-kill assay; type: cell-based, Candida parapsilosis; settings: 24 h, at up to 8× MIC
[21] = system: C. albicans ATCC 10231 (strain A); assay: Membrane permeabilization assay using propidium iodide staining; type: cell-based, Candida albicans; settings: 1 h at 35 °C; 20 and 26 at 4 × MIC, KANB (C14) at 2 × MIC ([…]), FLC at 7.8 µg/mL
[22] = system: C. glabrata ATCC 2001 (strain H); assay: Time-kill assay; type: cell-based, Candida glabrata; settings: 24 h, compound 22 at 4× MIC, VOR at 1× and 4× MIC

C[C@@H]1[C@H](O)[C@@H](C)/C=C/C=C/C=C/C=C/C=C/C=C/C=C/[C@H](O[C@@H]2O[C@H](C)[C@@H](O)[C@H](N)[C@@H]2O)C[C@@H]2O[C@](O)(C[C@@H](O)C[C@@H](O)[C@H](O)CC[C@@H](O)C[C@@H](O)CC(=O)O[C@H]1C)C[C@H](O)[C@H]2C(=O)O [AmB, amphotericin B, reference compound]
MIC [1]: 3.9 µg/mL (≈ 4.22 µM)
MIC ([2]; read-out: MIC (MIC-0)): 3.9 µg/mL (≈ 4.22 µM)
MIC ([3]; read-out: MIC (MIC-0)): 0.975 µg/mL (≈ 1.06 µM)
MIC ([4]; read-out: MIC (MIC-0)): 3.9 µg/mL (≈ 4.22 µM)
MIC [5]: 3.9 µg/mL (≈ 4.22 µM)
MIC [6]: 3.9 µg/mL (≈ 4.22 µM)
MIC [7]: 3.9 µg/mL (≈ 4.22 µM)
MIC [8]: 3.9 µg/mL (≈ 4.22 µM)

CCCCCCCCCCCCN1CCNCC1 [Compound 7]
MIC [1]: 1.95 µg/mL (≈ 7.66 µM)
MIC [5]: 1.95 µg/mL (≈ 7.66 µM)
MIC [7]: 1.95 µg/mL (≈ 7.66 µM)
MIC [8]: 1.95 µg/mL (≈ 7.66 µM)
hemolysis at 60 min, 7.8 µg/mL [9]: 52%
toxicity to mammalian cells (in words) [10]: toxic
toxicity to mammalian cells (in words) [11]: toxic
toxicity to mammalian cells (in words) [12]: toxic
increase in MIC in biofilms (SMIC50 and SMIC80 versus MIC in liquid cultures) [13]: 1–4 fold

CCCCCCCCCCCCCCN1CCNCC1 [Compound 9, 1-Tetradecyl Piperazine]
MIC [1]: 0.975 µg/mL (≈ 3.45 µM)
MIC ([2]; read-out: MIC (MIC-0)): 0.975 µg/mL (≈ 3.45 µM)
MIC ([14]; read-out: MIC (MIC-0)): 0.975 µg/mL (≈ 3.45 µM)
MIC ([3]; read-out: MIC (MIC-0)): 1.95 µg/mL (≈ 6.9 µM)
MIC ([15]; read-out: MIC (MIC-0)): 0.975 µg/mL (≈ 3.45 µM)
MIC ([16]; read-out: MIC (MIC-0)): 1.95 µg/mL (≈ 6.9 µM)
MIC ([4]; read-out: MIC (MIC-0)): 1.95 µg/mL (≈ 6.9 µM)
MIC [17]: 0.975 µg/mL (≈ 3.45 µM)
MIC [5]: 0.975 µg/mL (≈ 3.45 µM)
MIC [6]: 0.975 µg/mL (≈ 3.45 µM)
MIC [7]: 0.975 µg/mL (≈ 3.45 µM)
MIC [8]: 0.975 µg/mL (≈ 3.45 µM)
hemolysis at 60 min, 7.8 µg/mL [9]: 93%
toxicity to mammalian cells (in words) [10]: toxic
toxicity to mammalian cells (in words) [11]: toxic
toxicity to mammalian cells (in words) [12]: toxic
MIC [18]: 0.015 to 1.95 µg/mL (≈ 0.0531 to 6.9 µM)
increase in MIC in biofilms (SMIC50 and SMIC80 versus MIC in liquid cultures) [13]: 16–64 fold

CCCCCCCCN1CCN(CC(O)(Cn2cncn2)c2ccc(F)cc2F)CC1 (stereo not shown) [Compound 18, 2-(2,4-Difluorophenyl)-1-(1H-1,2,4-triazol-1-yl)-3-(4-octylpiperazine)propan-2-ol]
MIC [1]: 3.9 µg/mL (≈ 8.95 µM)
MIC ([2]; read-out: MIC (MIC-0)): 31.3 µg/mL (≈ 71.9 µM)
MIC ([14]; read-out: MIC (MIC-0)): 31.3 µg/mL (≈ 71.9 µM)
MIC ([3]; read-out: MIC (MIC-0)): 15.6 µg/mL (≈ 35.8 µM)
MIC ([15]; read-out: MIC (MIC-0)): > 31.3 µg/mL
MIC ([16]; read-out: MIC (MIC-0)): 31.3 µg/mL (≈ 71.9 µM)
MIC ([4]; read-out: MIC (MIC-0)): 0.975 to 31.3 µg/mL (≈ 2.24 to 71.9 µM)
MIC [17]: 1.95 µg/mL (≈ 4.48 µM)
MIC [5]: 3.9 µg/mL (≈ 8.95 µM)
MIC [6]: 3.9 µg/mL (≈ 8.95 µM)
hemolysis at 60 min, 62.5 µg/mL [9]: < 10%
toxicity to mammalian cells (in words) [10]: some toxicity
toxicity to mammalian cells (in words) [11]: nontoxic to A549 at up to 15.5 µg/mL
toxicity to mammalian cells (in words) [12]: some toxicity

CCCCCCCCCCN1CCN(CC(O)(Cn2cncn2)c2ccc(F)cc2F)CC1 (stereo not shown) [Compound 20, 2-(2,4-Difluorophenyl)-1-(1H-1,2,4-triazol-1-yl)-3-(4-decylpiperazine)propan-2-ol]
MIC ([2]; read-out: MIC (MIC-0)): 3.9 µg/mL (≈ 8.41 µM)
MIC ([3]; read-out: MIC (MIC-0)): 3.9 µg/mL (≈ 8.41 µM)
MIC ([4]; read-out: MIC (MIC-0)): 3.9 µg/mL (≈ 8.41 µM)
MIC [17]: 0.24 µg/mL (≈ 0.518 µM)
antifungal activity in the presence of FBS (in words) [7]: retained their full antifungal activity
fungistatic or fungicidal activity (time-kill) [19]: fungicidal
fungistatic or fungicidal activity (time-kill) [20]: fungistatic
toxicity to mammalian cells (in words) [10]: some toxicity
toxicity to mammalian cells (in words) [11]: no toxicity at up to 7.8 µg/mL
toxicity to mammalian cells (in words) [12]: some toxicity
propidium iodide (PI) dye uptake by fungal cells [21]: neither compound 20 nor 26 (at 4 × MIC) induced cellular uptake of PI dye
increase in MIC in biofilms (SMIC50 and SMIC80 versus MIC in liquid cultures) [13]: 4–16 fold

CCCCCCCCCCCCN1CCN(CC(O)(Cn2cncn2)c2ccc(F)cc2F)CC1 (stereo not shown) [Compound 22, 2-(2,4-Difluorophenyl)-1-(1H-1,2,4-triazol-1-yl)-3-(4-dodecylpiperazine)propan-2-ol]
antifungal activity in the presence of FBS (in words) [7]: retained their full antifungal activity
fungistatic or fungicidal activity (time-kill) [22]: fungicidal
fungistatic or fungicidal activity (time-kill) [20]: fungistatic
hemolysis at 60 min, 7.8 µg/mL [9]: > 50%
cell survival ([10]; 7.8 µg/mL): less than 40%
cell survival ([11]; 7.8 µg/mL): less than 40%
cell survival ([12]; 7.8 µg/mL): less than 40%
increase in MIC in biofilms (SMIC50 and SMIC80 versus MIC in liquid cultures) [13]: 1–2 fold

CCCCCCCCCCCCN1CCN(CC(O)(Cn2cncn2)c2ccc(Cl)cc2Cl)CC1 (stereo not shown) [Compound 26, 2-(2,4-Dichlorophenyl)-1-(1H-1,2,4-triazol-1-yl)-3-(4-dodecylpiperazine)propan-2-ol]
MIC ([2]; read-out: MIC (MIC-0)): 7.8 µg/mL (≈ 14.9 µM)
antifungal activity in the presence of FBS (in words) [7]: retained their full antifungal activity
hemolysis at 60 min, 7.8 µg/mL [9]: 85%
propidium iodide (PI) dye uptake by fungal cells [21]: neither compound 20 nor 26 (at 4 × MIC) induced cellular uptake of PI dye
increase in MIC in biofilms (SMIC50 and SMIC80 versus MIC in liquid cultures) [13]: 2–4 fold

OC(Cn1cncn1)(Cn1cncn1)c1ccc(F)cc1F [FLC, fluconazole, reference compound]
MIC ([2]; read-out: MIC (MIC-2)): > 125 µg/mL
MIC ([14]; read-out: MIC (MIC-2)): 15.6 µg/mL (≈ 50.9 µM)
MIC ([3]; read-out: MIC (MIC-2)): > 125 µg/mL
MIC ([15]; read-out: MIC (MIC-2)): > 125 µg/mL
propidium iodide (PI) dye uptake by fungal cells [21]: did not allow for PI uptake

CCCCCCCCCCCCCCOC[C@H]1O[C@H](O[C@@H]2[C@@H](O)[C@H](O[C@H]3O[C@H](CN)[C@@H](O)[C@H](O)[C@H]3N)[C@@H](N)C[C@H]2N)[C@H](O)[C@@H](N)[C@@H]1O [KANB (C14), reference compound]
propidium iodide (PI) dye uptake by fungal cells [21]: significantly increased PI dye uptake

C[C@@H](c1ncncc1F)[C@](O)(Cn1cncn1)c1ccc(F)cc1F [VOR, voriconazole, reference compound]
MIC ([2]; read-out: MIC (MIC-2)): 3.9 µg/mL (≈ 11.2 µM)
MIC ([14]; read-out: MIC (MIC-2)): 1.95 µg/mL (≈ 5.58 µM)
MIC ([3]; read-out: MIC (MIC-2)): 1.95 µg/mL (≈ 5.58 µM)
MIC ([15]; read-out: MIC (MIC-2)): 0.975 µg/mL (≈ 2.79 µM)
MIC ([16]; read-out: MIC (MIC-2)): 7.8 µg/mL (≈ 22.3 µM)
MIC ([4]; read-out: MIC (MIC-2)): 1.95 µg/mL (≈ 5.58 µM)
fungistatic or fungicidal activity (time-kill) [19]: fungistatic
fungistatic or fungicidal activity (time-kill) [22]: fungistatic
